In patent US20070227399A1, “COMPOSITIONS AND METHODS FOR THE PRESERVATION OF WOOD” (Novus International Inc., priority 2006, published 2007):

Assays:
[1] = system: Gloeophyllum trabeum (ATCC 11539); assay: AWPA E10-01 laboratory soil-block culture decay test of treated southern pine blocks; format: cell-based; settings: for Mean percent weight loss (s.d. in parentheses), G. trabeum: unleached southern pine blocks, 12 weeks, n = 5
Procedure: (§1) The decay resistance of southern pine treated with six experimental wood preservative formulations and exposed to two brown rot fungal species were tested using the AWPA E10-01 “Standard Method of Testing Wood Preservatives by Laboratory Soil-Block Cultures.” For this, conditioned blocks of wood are treated with suitable solutions of preservative. After a conditioning period, the wood blocks are exposed to a recognized destructive species of wood-destroying fungi. The minimum amount of preservative that protects the wood blocks against decay by a given fungus is defined as the threshold retention for that organism. Failure to protect is evidenced by loss of mass from the treated wood blocks, as indicated by a loss of weight.
(§2) Preparation of wood. Southern pine sapwood (Pinus spp.) with 6-10 rings/inch and clear of knots or other obvious defects was used. The wood was milled into test blocks of 19 mm×19 mm×19 mm. The test cubes were divided into density groups of ±5%, with 5 blocks per treatment or control. One feeder strip is needed for each block in a culture bottle. The sapwood selected for feeder strips should be capable of furnishing a satisfactory growth of the test fungus. Southern pine sapwood feeder strips were cut to approximately 3 by 28 by 34 mm with the grain of the wood parallel to either of the long dimensions and with the edge grain (radial surface) exposed to the flat face, insofar as possible.
(§3) The test blocks were pressure treated with the test preservatives, solvent alone, or two control wood preservatives, ACQ-Type D and propiconazole […] according to procedures detailed in AWPA Standard E7-01. Several of the compounds detailed in Table 1 are commercially available from Novus International, Saint Louis, Mo. (i.e., the composition abbreviated Biox AUSD is a blend of organic acid, inorganic acid and HMTBA and is sold under the trade name ACTIVATE® US WD; the compound abbreviated Biox C is HMBTA-Cu and is sold under the trade name MINTREX® Cu; the compound Biox C/Biox SE is a blend of ethoxyquin and HMTBA-Cu; the compound abbreviated Biox SE is ethoxyquin emulsion; the compound abbreviated Biox T is an antioxidant blend sold under the trade name TOXGUARD®, and the compound abbreviated Biox Z is HMTBA-Zn is sold under the trade name MINTREX® Zn).
(§4) Briefly, a full cell pressure process, simulating commercial practice as far as possible with laboratory plant equipment, using an initial vacuum, suitable temperature, and an appropriate pressure period was used. The amount of preservative absorbed by the block, i.e., the retention, was calculated for each preservative. After the test blocks were treated and weighed to obtain absorption, they were exposed to open laboratory conditions until the solvent evaporated and the moisture content was relatively stable. Then they were placed in a conditioning room for 21 days. The blocks were tested in the unleached condition.
(§5) Preparation of soil culture bottles. A soil substrate with a water holding capacity between 20% and 40% and a pH between 5.0 and 8.0 was used. The soil substrate, sifted and lightly compacted by tapping, was placed in 8-oz cylindrical culture bottles fitted with screw caps without liners. The bottles were about half-full. This amount of soil, about 118 ml for an 8-oz. culture bottle, weighed not less than 90 g when oven-dried. […] The soil was leveled and one feeder strip per block was placed in each bottle. The soil-filled bottles were autoclaved for 30 min (one time), with the caps loosened. Lids on jars with a breather hole were covered with a strip of cloth first-aid tape.
(§6) Preparation of test cultures. […] Sections (e.g., 10 mm squares) were cut from near the leading edge of mycelium in petri dish cultures and placed in contact with an edge of a feeder strip on the soil of the culture bottles.

[2] = system: Postia placenta (Madison 698); assay: as above; format: cell-based; settings: for Mean percent weight loss (s.d. in parentheses), P. placenta: unleached southern pine blocks, 12 weeks, n = 5
Procedure: as §1, §2, §3, §4, §5, §6

[3] = over all Biox C retentions, ethanolamine retention 36 kg/m^3, no observable dose response

SMILES	weight losses, G. trabeum [1, 3]	Mean percent weight loss (s.d. in parentheses), G. trabeum ([1]; retention 0.05 kg/m^3)	Mean percent weight loss (s.d. in parentheses), G. trabeum ([1]; retention 0.10 kg/m^3)	Mean percent weight loss (s.d. in parentheses), G. trabeum ([1]; retention 0.50 kg/m^3)	Mean percent weight loss (s.d. in parentheses), G. trabeum ([1]; retention 2.00 kg/m^3)	weight losses, P. placenta [2, 3] [%]	Mean percent weight loss (s.d. in parentheses), P. placenta ([2]; retention 0.05 kg/m^3)	Mean percent weight loss (s.d. in parentheses), P. placenta ([2]; retention 0.10 kg/m^3)	Mean percent weight loss (s.d. in parentheses), P. placenta ([2]; retention 0.50 kg/m^3)	Mean percent weight loss (s.d. in parentheses), P. placenta ([2]; retention 2.00 kg/m^3)	Mean percent weight loss (s.d. in parentheses), G. trabeum ([1]; retention 0.010 kg/m^3)	Mean percent weight loss (s.d. in parentheses), G. trabeum ([1]; retention 0.025 kg/m^3)	Mean percent weight loss (s.d. in parentheses), P. placenta ([2]; retention 0.010 kg/m^3)	Mean percent weight loss (s.d. in parentheses), P. placenta ([2]; retention 0.025 kg/m^3)
CSCCC(O)C(=O)[O-].CSCCC(O)C(=O)[O-].[Cu+2] (centres unmarked) [Biox C, copper bis(2-hydroxy-4-methylthio)butanoic acid]	approximately 6.5%	5.5 (0.7) %	6.9 (1.8) %	6.1 (0.7) %	10.2 (5.3) %	~5.0	4.5 (0.8) %	5.0 (1.0) %	6.1 (0.4) %	5.1 (0.7) %	–	–	–	–
CSCCC(O)C(=O)[O-].CSCCC(O)C(=O)[O-].[Zn+2] (centres unmarked) [Biox Z]	–	38.8 (3.3) %	26.4 (8.5) %	28.9 (15.2) %	27.8 (6.1) %	–	50.4 (2.9) %	47.7 (5.1) %	42.6 (23.8) %	26.1 (23.2) %	–	–	–	–
CC(C)(C)C(O)(CCc1ccc(Cl)cc1)Cn1cncn1 (centres unmarked) [Tebuconazole, reference compound]	–	3.2 (1.3) %	1.0 (0.4) %	–	–	–	15.5 (13.6) %	2.8 (3.1) %	–	–	15.5 (3.7) %	11.8 (8.3) %	24.9 (21.8) %	22.4 (17.4) %
